# Source: publication PMC4417150, “Selective inhibition of miR-21 by phage display screened peptide” (Nucleic Acids Research, 2015)
# Peptide text beside a SMILES is read from it.
# Tested on: MCF-7 cells
# Test: Quantitative uptake of FAM-conjugated peptide (flow cytometry)
# Format: in vitro ADME
# Conditions: FAM-conjugated peptides 1, 5, 10 µM; MCF-7, serum free media, 6 h, 37°C; FACS; duplicate
# Protocol: Carboxyfluorescein (FAM)-conjugated peptide was added onto MCF-7 cells with ∼80% confluence in serum free media. Cells were then incubated at 37°C humidified incubator (5% CO2) for 6 h. Cells were washed twice with ice cold PBS containing 1mg/ml heparin, followed by one wash with trypan blue and two washes with ice cold PBS. Cells were trypsinised, followed by centrifugation at 700 g for 5 min at 4°C. Cell pellet was resuspended in ice cold PBS and FACS analysis was done in BD Accuri instrument. 10000 counts per sample was analyzed using BD Accuri C6 software.
# As the peptide contains three proline residues, we reasoned that the peptide may have cell penetrating properties. To check the cell penetrating property, we FAM conjugated the peptides and monitored their uptake by flow cytometry.
row,Compound,cell penetrating potential (uptake)
1,CC(C)C[C@H](NC(=O)[C@H](C)N)C(=O)N[C@@H](Cc1c[nH]c2ccccc12)C(=O)N1CCC[C@H]1C(=O)N1CCC[C@H]1C(=O)N[C@@H](CC(N)=O)C(=O)N[C@@H](CC(C)C)C(=O)N[C@@H](Cc1c[nH]cn1)C(=O)N[C@@H](C)C(=O)N[C@@H](Cc1c[nH]c2ccccc12)C(=O)N[C@H](C(=O)N1CCC[C@H]1C(=O)O)C(C)C [wild-type peptide] (H-ALWPPNLHAWVP-OH),clearly indicated cell penetrating potential
2,LPPAPWNWAHVL [scrambled mutant],clearly indicated cell penetrating potential
3,PVWAHLNPPWLA [reverse mutant],clearly indicated cell penetrating potential
